# In US9341616B2, “Sweet taste receptor chimeric proteins and use thereof” (AJINOMOTO CO., INC., priority 2014, dated 2016):
# Residues, ends and D or L forms follow the SMILES beside them.
# Target: h-mT1R2-481/T1R3mosaicB (UniProt Q8TE23+Q925D8, A537S/A558R/A564V/A568V/A570T/A588V/A645S/A649T/A658V/A698V/A702T/A782V/A793V/A807V/A88D/C582S/C678S/E530V/E534N/E542M/E548N/E725V/F525Y/F541I/F612A/F622V/F665L/F695L/F71L/G696N/G701T/G86K/H484Y/H528R/H728R/I152V/I481V/I486P/I490V/I510L/I518V/I595M/I617V/I643V/I645L/I692L/I695G/I706V/I740A/I803L/K504M/K555R/K565R/K626T/K714N/K818R/K827G/L151M/L521P/L560F/L571I/L578I/L610P/L631F/L636F/L639V/L684P/L688V/L68N/L702I/L72W/L734M/L735F/L800F/L823M/L825Q/M492I/M616G/M644L/M682V/M690V/M744T/M748V/M74L/N540G/N541S/N547G/N675D/N721H/P545F/P561R/P564S/P638T/P67S/P824S/Q123R/Q536L/Q546K/Q550E/Q555R/Q611L/Q676H/Q757R/Q795R/Q831P/R498S/R632Q/R667S/S112P/S124D/S501P/S547N/S550A/S576L/S595F/S610P/S628F/S635P/S637R/S663R/S670G/S679G/S681F/S703N/S717H/S727G/S784D/S804G/T109A/T529S/T542A/T549I/T609V/T629S/T642S/T663I/T694M/T705I/T706G/T716I/T813A/V120A/V508I/V512P/V557A/V573A/V584A/V585L/V613L/V617M/V673M/V687A/V691A/V694A/V718L/V718M/V723A/V729T/V738A/V741L/V774I/V791M/V805L/V812A/V821L/W599R/W676R/W824R/Y533F/Y615F/Y671F/Y680C/Y769S/Y783H/Y794L)
# Sequence (Q8TE23 with tags, fused parts or gaps with the stated changes limits assumed): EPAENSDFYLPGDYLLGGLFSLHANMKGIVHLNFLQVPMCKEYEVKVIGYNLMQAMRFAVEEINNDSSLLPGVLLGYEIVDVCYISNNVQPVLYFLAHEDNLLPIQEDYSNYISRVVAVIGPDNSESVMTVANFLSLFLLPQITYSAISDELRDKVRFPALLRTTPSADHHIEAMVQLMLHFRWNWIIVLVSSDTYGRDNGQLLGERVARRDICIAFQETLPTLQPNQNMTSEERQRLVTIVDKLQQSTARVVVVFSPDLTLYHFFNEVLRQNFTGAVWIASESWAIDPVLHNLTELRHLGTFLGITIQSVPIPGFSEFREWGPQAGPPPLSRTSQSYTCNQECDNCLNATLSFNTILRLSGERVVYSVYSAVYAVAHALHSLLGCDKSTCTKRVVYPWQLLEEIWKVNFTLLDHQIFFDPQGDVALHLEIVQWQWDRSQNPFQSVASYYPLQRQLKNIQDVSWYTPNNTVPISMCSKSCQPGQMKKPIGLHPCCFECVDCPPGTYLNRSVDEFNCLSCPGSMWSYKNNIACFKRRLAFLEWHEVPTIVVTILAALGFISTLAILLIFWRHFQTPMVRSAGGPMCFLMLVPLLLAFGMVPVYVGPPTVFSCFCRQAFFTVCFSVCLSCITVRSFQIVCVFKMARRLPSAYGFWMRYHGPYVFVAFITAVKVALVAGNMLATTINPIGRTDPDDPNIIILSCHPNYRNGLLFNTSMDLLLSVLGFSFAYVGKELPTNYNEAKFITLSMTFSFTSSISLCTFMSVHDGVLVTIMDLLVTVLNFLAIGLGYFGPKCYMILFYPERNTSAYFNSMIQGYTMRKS
# Sequence (Q925D8 with tags, fused parts or gaps with the stated changes limits assumed): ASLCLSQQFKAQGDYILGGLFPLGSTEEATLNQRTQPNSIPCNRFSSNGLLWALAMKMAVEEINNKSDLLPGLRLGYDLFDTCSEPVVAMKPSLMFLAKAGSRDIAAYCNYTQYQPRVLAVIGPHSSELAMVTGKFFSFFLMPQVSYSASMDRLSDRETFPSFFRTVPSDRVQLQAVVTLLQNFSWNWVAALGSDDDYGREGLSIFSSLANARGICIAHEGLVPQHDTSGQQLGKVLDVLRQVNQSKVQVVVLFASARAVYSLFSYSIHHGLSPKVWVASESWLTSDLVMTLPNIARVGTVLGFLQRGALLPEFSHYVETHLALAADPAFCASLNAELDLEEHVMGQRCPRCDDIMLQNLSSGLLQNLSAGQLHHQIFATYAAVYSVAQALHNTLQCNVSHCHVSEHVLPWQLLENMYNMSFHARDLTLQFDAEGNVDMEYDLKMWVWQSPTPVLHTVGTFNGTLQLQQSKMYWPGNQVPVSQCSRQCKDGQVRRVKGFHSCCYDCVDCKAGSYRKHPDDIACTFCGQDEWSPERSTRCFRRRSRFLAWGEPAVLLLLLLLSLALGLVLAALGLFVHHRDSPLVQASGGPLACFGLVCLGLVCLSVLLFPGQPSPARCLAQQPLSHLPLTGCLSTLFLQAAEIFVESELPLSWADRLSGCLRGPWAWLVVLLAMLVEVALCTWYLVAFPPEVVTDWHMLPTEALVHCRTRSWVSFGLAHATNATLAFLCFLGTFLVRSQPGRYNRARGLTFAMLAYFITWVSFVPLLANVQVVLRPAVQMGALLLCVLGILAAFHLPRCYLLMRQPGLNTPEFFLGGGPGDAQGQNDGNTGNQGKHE
# Settings: Table 6; genes h-mT481/T1R3mB (h-mT1R2-481, T1R3mB); HEK293E cells
# Protocol: The HEK293E cells maintained by using the DMEM/Ham's F-12 medium (Nakarai Tesque) containing 10% fetal bovine serum ([…]) and 1% Pen Strep (GIBCO) were washed with D-PBS(−) (Nakarai Tesque), and collected from the flask by using 0.25% Trypsin EDTA (GIBCO). The cells were centrifuged (1,200 rpm, 3 minutes), and after the supernatant was removed, suspended in 5% FBS DMEM/Ham's F-12 at a density of 0.75×10^7 cell/ml. This suspension (10 ml) was put into a […] (IWAKI), and culture was performed overnight (37° C., 5% CO2). On the next day, the medium was exchanged with Opti-MEM (30 ml, Invitrogen, Life Technologies), a sweet taste receptor gene mixture (Gα15-trans48LD gene, various kinds of T1R2 chimeric genes, and various kinds of T1R3 chimeric genes, 63.8 μg in total) prepared by using Opti-MEM and Lipofectamin 2000 (Invitrogen, Life Technologies) was slowly added to the cell suspension, and incubation was performed (37° C., 5% CO2) for 6 hours to attain gene transfer.
# After the gene transfer, the cells were washed with D-PBS(−), then removed from the flask by using 0.25% Trypsin EDTA (GIBCO), and collected. After the cell number was counted, the cells were suspended in the 5% FBS DMEM medium (2.78 mM glucose, GIBCO) at a density of 0.5×10^6 cell/ml. This cell suspension was put into wells of D-Lysine coat 96-well plate (BD bioscience) in such a volume that the cell count is 7.0×10^4 cells/well, and the cells were cultured overnight.
# After the culture, all the medium of the 96 wells were discarded. 200 μl of the staining solution for measurement of intracellular calcium ion′ Calcium Assay Kit Express (Molecular Device), diluted 80 times with an assay buffer (20 mM HEPES, 146 mM NaCl, 1 mM MgSO4, 1.39 mM glucose, 1 mM CaC12, 2.5 mM Probenecid, 0.05% bovine serum albumin) was added to each well, and the plate was left standing at 37° C. for 30 minutes and at room temperature for 45 minutes to perform staining. After the staining, 50 μl of a solution of stimulant (sweet taste substance) prepared with the assay buffer was added to each well, and the fluorescence value was measured for 120 seconds after the stimulation by using FDSSμEELL (Hamamatsu Photonics). By measuring the fluorescence value (Ex. 480 nm, Em. 540 nm) before and after the stimulation, the change of the intracellular free calcium ion concentration caused by addition of the stimulant via a sweet taste receptor was quantitatively investigated. The measurement and analysis of the fluorescence value was performed by using the software attached to FDSSμEELL (FDSS7000EX), and ΔF/F value was calculated in accordance with the following equation, and used for the evaluation. ΔF/F=(Maximum fluorescence value after stimulation−Minimum fluorescence value after stimulation)/(Fluorescence value before stimulation)
# Furthermore, by using the ΔF/F values obtained when each sweet taste substance was added, the S/N ratio was calculated. Specifically, the S/N value was calculated by using the minimum value of ΔF/F obtained when each substance was added at various concentrations as noise (N) value, and the similarly obtained maximum value of ΔF/F as the signal (S) value, and used as an index for sensitivity of the measurement of the activity of each receptor. That is, a higher S/N value means a higher sensitivity for detection of an interaction of a sweet taste receptor and a test substance, which makes it easier to detect stimulation with a sweet taste substance or sweet taste-regulating substance of a lower concentration.
# The sweet taste substances used as the stimulating substance are acesulfame potassium (Tokyo Kasei Kogyo), sodium saccharin (WAKO), sucralose (SIGMA), sucrose (WAKO), and neotame (SIGMA), as well as aspartame, advantame, and SC-45647 ([3-[(S)-1-phenylethyl]-2-(4-cyanophenyl)guanidino]acetic acid, which were all synthesized in-house.
row,Structure (SMILES),S/N
1,"OC[C@H]1O[C@H](O[C@]2(CCl)O[C@H](CCl)[C@@H](O)[C@@H]2O)[C@H](O)[C@@H](O)[C@H]1Cl [Sucralose, sucralose]",6.6
2,"C[C@H](NC(=Nc1ccc(C#N)cc1)NCC(=O)O)c1ccccc1 [SC-45647, [3-[(S)-1-phenylethyl]-2-(4-cyanophenyl)guanidino]acetic acid]",7.7
3,"COc1ccc(CCC(=O)c2c(O)cc(O[C@@H]3O[C@H](CO)[C@@H](O)[C@H](O)[C@H]3O[C@@H]3O[C@@H](C)[C@H](O)[C@@H](O)[C@H]3O)cc2O)cc1O [NHDC, neohesperidin dihydrochalcone]",5.8
4,"COC(=O)[C@H](Cc1ccccc1)NC(=O)[C@H](CC(=O)O)NCCCc1ccc(OC)c(O)c1 [Advantame, advantame]",10.2
5,"COC(=O)[C@H](Cc1ccccc1)NC(=O)[C@H](CC(=O)O)NCCC(C)(C)C [Neotame, neotame]",7.7
6,"COC(=O)[C@H](Cc1ccccc1)NC(=O)[C@@H](N)CC(=O)O [Aspartame, aspartame] (HELM PEPTIDE1{D.F.[CO[*:1]]}$$$$V2.0)",7.8
7,"OC[C@H]1O[C@@](CO)(O[C@H]2O[C@H](CO)[C@@H](O)[C@H](O)[C@H]2O)[C@@H](O)[C@@H]1O [Sucrose, sucrose]",4.0
8,"CC1=CC(=O)NS(=O)(=O)O1 [Acesulfame K, acesulfame potassium]",5.6
9,"O=C1NS(=O)(=O)c2ccccc21.[Na] [Saccharin Na, sodium saccharin]",6.1
